How the values were obtained:
Plutella xylostella = experiment: Insecticidal test on Plutella xylostella (dip of Chinese cabbage seedlings with laid eggs); assay type: in vivo; details: 144 h, seedlings with laid eggs dipped about 30 seconds, 25° C., 6 days after dip treatment, read-out: insecticidal efficacy (corrected mortality rate) on Plutella xylostella
Description: Insecticidal Test on Plutella xylostella
Adults of Plutella xylostella were released onto Chinese cabbage seedlings and allowed to lay eggs thereon. At 2 days after the release of the adults, the Chinese cabbage seedlings with laid eggs were dipped for about 30 seconds in agrochemical formulations diluted to 500 ppm, each of which contained a different compound represented by the general formula (1) of the present invention as an active ingredient. After air-dried, the seedlings were kept in a thermostatic chamber at 25° C. At 6 days after the dip treatment, the number of hatched larvae per plot was counted, the mortality rate was calculated according to the formula shown below, and the insecticidal efficacy was evaluated according to the criteria of Test Example 2. This test was conducted in triplicate using 10 adults of Plutella xylostella per plot.
Corrected mortality rate (%)=100×(Number of hatched larvae in a non-treatment plot−Number of hatched larvae in a treatment plot)/Number of hatched larvae in a non-treatment plot [Math. 3]

Laodelphax striatellus = experiment: Insecticidal test on Laodelphax striatellus (rice seedling dip); assay type: in vivo; details: 192 h, rice seedlings dipped 30 seconds, 3rd-instar larvae, 8 days after inoculation, read-out: insecticidal efficacy (corrected mortality rate) on Laodelphax striatellus
Description: Insecticidal Test on Laodelphax striatellus
The compounds represented by the general formula (1) of the present invention or salts thereof were separately dispersed in water and diluted to 500 ppm. Rice plant seedlings (variety: Nihonbare) were dipped in the agrochemical dispersions for 30 seconds. After air-dried, each seedling was put into a separate glass test tube and inoculated with ten 3rd-instar larvae of Laodelphax striatellus, and then the glass test tubes were capped with cotton plugs. At 8 days after the inoculation, the numbers of surviving larvae and dead larvae were counted, the corrected mortality rate was calculated according to the formula shown below, and the insecticidal efficacy was evaluated according to the criteria shown below.
Corrected mortality rate (%)=100×(Survival rate in a non-treatment plot−Survival rate in a treatment plot)/Survival rate in a non-treatment plot [Math. 2]
A: the corrected mortality rate is 100%. B: the corrected mortality rate is 90 to 99%. C: the corrected mortality rate is 80 to 89%. D: the corrected mortality rate is 50 to 79%.

SMILES: CCS(=O)(=O)n1c(-c2nc3cc(C(F)(F)C(F)(F)F)nnc3n2C)cc2ccccc21 [Compound 1-33, 2-(1-ethylsulfonylindol-2-yl)-3-methyl-6-pentafluoroethyl-3H-imidazo[4,5-c]pyridazine]
- mortality at 500 ppm (Plutella xylostella): 100%
- mortality at 500 ppm (Laodelphax striatellus): 100%

SMILES: CCS(=O)(=O)n1c(-c2nc3cc(C(F)(F)C(F)(F)F)nnc3n2C)cc2ccc(F)cc21 [Compound 1-65, 2-(1-ethylsulfonyl-6-fluoroindol-2-yl)-3-methyl-6-pentafluoroethyl-3H-imidazo[4,5-c]pyridazine]
- mortality at 500 ppm (Plutella xylostella): 100%
- mortality at 500 ppm (Laodelphax striatellus): 100%

SMILES: CCS(=O)(=O)n1c(-c2nc3cc(C(F)(F)F)cnc3n2C)cc2cc(C(F)(F)F)ccc21 [Compound 2-11, 2-(1-ethylsulfonyl-5-trifluoromethylindol-2-yl)-3-methyl-6-trifluoromethyl-3H-imidazo[4,5-b]pyridine]
- mortality at 500 ppm (Plutella xylostella): 100%
- mortality at 500 ppm (Laodelphax striatellus): 100%

SMILES: CCS(=O)(=O)n1c(-c2nc3cc(SC(F)(F)F)ccc3o2)cc2ccccc21 [Compound 3-1, 2-(1-ethylsulfonylindol-2-yl)-5-trifluoromethylthiobenzo[d]oxazole]
- mortality at 500 ppm (Plutella xylostella): 100%

Source: patent publication US20190174760A1, “N-ALKYLSULFONYL CONDENSED HETEROCYCLIC COMPOUND OR SALT THEREOF, INSECTICIDE COMPRISING THE COMPOUND, AND METHOD FOR USING THE INSECTICIDE” (Nihon Nohyaku Co., Ltd., priority 2016, published 2019)
